Our source for the logD values is ChEMBL document CHEMBL1133036, “Diacylglycerols with lipophilically equivalent branched acyl chains display high affinity for protein kinase C (PK-C). A direct measure of the effect of constraining the glycerol backbone in DAG lactones” (Bioorg Med Chem Lett, 2000).

The nature of this series: Partition coefficient (logD). The format is physicochemical. The note with it: octanol/water.
Turning to `CC(C)(C)C(=O)OCC(CO)OC(=O)C(C)(C)C` (stereo unspecified), the pH-dependent lipophilicity (logD) worked out at 2.

Consider `CC(C)C(CC(=O)OC[C@H](CO)OC(=O)CC(C(C)C)C(C)C)C(C)C`, for which the logD was 5.

For the molecule `CC(C)C(C/C=C1/CC(CO)(COC(=O)CC(C(C)C)C(C)C)OC1=O)C(C)C` (stereo unspecified), the log distribution coefficient (logD) came to 5.

Turning to `O=C(OC[C@H](CO)OC(=O)C12CC3CC(CC(C3)C1)C2)C12CC3CC(CC(C3)C1)C2`, the logD is 5.

The molecule `CCCCCCCC(=O)OC[C@H](CO)OC(=O)CCCCCCC` showed a logD of 5.

As for `CCCCCCCC/C=C/CCCCCCCC(=O)O[C@@H](CO)COC(C)=O` [AUTONOM NAME:], the logD amounted to 7.

The logD is the decadic logarithm of the distribution of all forms, ionised or not, between an organic phase and buffer at a given pH. A low value points to lower lipophilicity.
